# pEC50, pIC50: −log10 of the molar value.
# Assays:
# [1] = molecular target: Recombinant Human NF-kappaB-Inducing Kinase (NIK/MAP3K14) (Homo sapiens, UniProt Q99558); assay: Biological Assay A2: inhibition of auto-phosphorylation of recombinant human NIK/MAP3K14 (AlphaScreen); format: biochemical; conditions: auto-phosphorylation; averaged over all measurements on all batches; read-out: αscreen IC50
# Procedure: Inhibition of Auto-Phosphorylation of Recombinant Human NF-kappaB-Inducing Kinase (NIK/MAP3K14) Activity (AlphaScreen®)
# NIK/MAP3K14 auto-phosphorylation activity was measured using the AlphaScreen® (αscreen) format (Perkin Elmer). All compounds tested were dissolved in dimethyl sulfoxide (DMSO) and further dilutions were made in assay buffer. Final DMSO concentration was 1% (v/v) in assays. Assay buffer was 50 mM Tris pH 7.5 containing 1 mM EGTA (ethylene glycol tetraacetic acid), 1 mM DTT (dithiothreitol), 0.1 mM Na3VO4, 5 mM MgCl2, 0.01% Tween 20. Assays were carried out in 384 well Alphaplates (Perkin Elmer). Incubations consisted of compound, 25 microM Adenosine-5′-triphosphate (ATP), and 0.2 nM NIK/MAP3K14. Incubations were initiated by addition of GST-tagged NIK/MAP3K14 enzyme, carried out for 1 h at 25° C. and terminated by addition of stop buffer containing anti-phospho-IKK Ser176/180 antibody. Protein A Acceptor and Glutathione-Donor beads were added before reading using an EnVision® Multilabel Plate Reader (Perkin Elmer). Signal obtained in the wells containing blank samples was subtracted from all other wells and IC50's were determined by fitting a sigmoidal curve to % inhibition of control versus Log10 compound concentration.
# [2] = tested on: LP-1 cells; assay: Biological Assay C: antiproliferative activity on LP-1 cells (CellTiter-Glo); format: cell-based, human; conditions: 72 hr treatment, averaged values
# Procedure: (§1) Determination of Antiproliferative Activity on LP-1, L-363 and JJN-3 Cells
# (§2) All compounds tested were dissolved in DMSO and further dilutions were made in culture medium. Final DMSO concentration was 0.3% (v/v) in cell proliferation assays. Viability was assessed using CellTiter-Glo cell viability assay kit (Promega). The human LP-1, L-363 and JJN-3 cells (DSMZ) were cultured in RPMI 1640 medium supplemented with 2 mM L-glutamine, and 10% fetal calf serum (PAA). Cells were routinely kept as suspension cells at 37° C. in a humidified 5% CO2 atmosphere. Cells were passaged at a seeding density of 0.2×10^6/ml twice a week. Cells were seeded in black tissue culture treated 96-well plates (Perkin Elmer). Densities used for plating ranged from 2,000 to 6,000 cells per well in a total volume of 75 μl medium. After twenty four hours, drugs and/or solvents were added (25 μl) to a final volume of 100 μl. Following 72 hr of treatment plates were removed from the incubator and allowed to equilibrate to room temperature for approx 10 min. 100 μl CellTiter-Glo reagent was added to each well that was then covered (Perkin Elmer Topseal) and shaken on plate shaker for 10 min. Luminescence was measured on a HTS Topcount (Perkin Elmer). Within an experiment, the results for each treatment were the mean of 2 replicate wells. For initial screening purposes, compounds were tested using a 9 point dilution curve (serial 1:3 dilutions). For each experiment, controls (containing no drug) and a blank incubation (containing cells read at the time of compound addition) were run in parallel. The blank value was subtracted from all control and sample values. For each sample, the mean value for cell growth (in relative light units) was expressed as a percentage of the mean value for cell growth of the control.
# [3] = tested on: L-363 cells; assay: Biological Assay C: antiproliferative activity on L-363 cells (CellTiter-Glo); format: cell-based, human; conditions: 72 hr treatment, averaged values
# Procedure: as §1, §2
# [4] = tested on: JJN-3 cells; assay: Biological Assay C: antiproliferative activity on JJN-3 cells (CellTiter-Glo); format: cell-based, human; conditions: 72 hr treatment, averaged values
# Procedure: as §1, §2
# Chain of Recombinant Human NF-kappaB-Inducing Kinase (NIK/MAP3K14) (Q99558 whole entry): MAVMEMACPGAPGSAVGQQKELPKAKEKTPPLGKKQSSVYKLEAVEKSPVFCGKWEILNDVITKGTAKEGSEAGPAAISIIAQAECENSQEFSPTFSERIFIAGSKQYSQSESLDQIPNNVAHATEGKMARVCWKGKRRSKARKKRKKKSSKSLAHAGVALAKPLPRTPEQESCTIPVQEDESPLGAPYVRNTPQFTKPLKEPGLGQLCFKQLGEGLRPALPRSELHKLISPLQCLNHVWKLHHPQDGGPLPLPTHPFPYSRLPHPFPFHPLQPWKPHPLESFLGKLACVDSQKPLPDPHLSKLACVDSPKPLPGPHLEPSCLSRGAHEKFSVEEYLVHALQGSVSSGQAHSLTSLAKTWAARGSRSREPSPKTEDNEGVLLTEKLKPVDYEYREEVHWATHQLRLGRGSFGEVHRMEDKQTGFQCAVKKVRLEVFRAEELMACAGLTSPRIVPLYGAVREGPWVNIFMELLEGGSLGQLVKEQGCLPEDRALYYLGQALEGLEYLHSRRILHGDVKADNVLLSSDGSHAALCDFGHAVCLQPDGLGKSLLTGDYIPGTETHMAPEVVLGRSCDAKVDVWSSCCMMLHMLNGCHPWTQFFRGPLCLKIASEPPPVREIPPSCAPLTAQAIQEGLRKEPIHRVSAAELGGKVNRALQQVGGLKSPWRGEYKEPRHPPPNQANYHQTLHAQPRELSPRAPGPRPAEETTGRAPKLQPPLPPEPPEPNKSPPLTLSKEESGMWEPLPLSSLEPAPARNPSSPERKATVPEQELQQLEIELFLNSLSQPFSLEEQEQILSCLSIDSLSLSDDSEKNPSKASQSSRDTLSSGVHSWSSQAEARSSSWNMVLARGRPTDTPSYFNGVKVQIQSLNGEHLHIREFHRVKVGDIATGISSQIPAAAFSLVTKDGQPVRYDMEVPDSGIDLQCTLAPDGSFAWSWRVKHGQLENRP
SMILES,pIC50 [1],"pEC50 ([2]; Homo sapiens, LP-1, 72 h)","pEC50 ([3]; Homo sapiens, L-363, 72 h)","pEC50 ([4]; Homo sapiens, JJN-3, 72 h)",pEC50 [2],pEC50 [3],pEC50 [4]
CN1CC(n2cc(-c3nc(N)ncc3C(F)(F)F)c3cc(C#CC(C)(O)C4CC4)ncc32)C1 (stereo not shown) [Compound 99],6.96,5.70,5.96,5.96,,,
CC(O)(C#Cc1cc2c(-c3nc(N)ncc3C(F)(F)F)cn(C3COC3)c2cn1)C1CC1 (stereo not shown) [Compound 100],7.21,5.52,5.82,5.85,,,
COC(C)(C)Cn1cc(-c2nc(N)ncc2F)c2cc(C#CC(C)(O)C3CC3)ncc21 (stereo not shown) [Compound 101],7.42,6.66,6.80,6.80,,,
CC(O)(C#Cc1cc2c(-c3nc(N)ncc3F)cn(C3CN(C4CC4)C3)c2cn1)C1CC1 (stereo not shown) [Compound 104],7.28,6.33,6.74,6.59,,,
CC(O)(C#Cc1cc2c(-c3nc(N)ncc3F)cn(CCCN3CCOCC3)c2cn1)C1CC1 (stereo not shown) [Compound 105],6.72,6.28,6.85,6.70,,,
CCN1CCC(n2cc(-c3nc(N)ncc3F)c3cc(C#CC(C)(O)C4CC4)ncc32)CC1 (stereo not shown) [Compound 106],7.02,6.47,7.05,6.92,,,
CN1CCC(n2cc(-c3nc(N)ncc3F)c3cc(C#CC(C)(O)C4CC4)ncc32)C1 (stereo not shown) [Compound 107],7.06,6.82,7.24,7.11,,,
COCCN1CCC(n2cc(-c3nc(N)ncc3F)c3cc(C#CC(C)(O)C4CC4)ncc32)CC1 (stereo not shown) [Compound 108],6.85,6.19,6.55,6.57,,,
Cn1cc(Cn2cc(-c3nc(N)ncc3F)c3cc(C#CC(C)(O)C4CC4)ncc32)cn1 (stereo not shown) [Compound 109],6.92,5.92,6.44,6.34,,,
[2H]C([2H])([2H])C(O)(C#Cc1cc2c(-c3nc(N)ncc3F)cn(C3COC3)c2cn1)C1([2H])C([2H])([2H])C1([2H])[2H] (stereo not shown) [Compound 110],7.77,6.24,6.85,6.77,,,
COCCn1cc(-c2ccnc(N)n2)c2cc(C#CC(C)(O)C3CCNCC3)ncc21 (stereo not shown) [Compound 115],5.31,< 5.00,< 5.00,< 5.00,,,
COCCN1CCC(n2cc(-c3nc(N)ncc3F)c3cc(C#CC(C)(O)C4CC4)ncc32)CC1 (stereo not shown) [Compound 126],6.85,,,,6.19,6.55,6.57
CCN1CCOC(Cn2cc(-c3nc(N)ncc3F)c3cc(C#CC(C)(O)C4CC4)ncc32)C1 (stereo not shown) [Compound 127],6.74,6.38,6.72,6.62,,,
COCC(C)n1cc(-c2nc(N)ncc2F)c2cc(C#CC(C)(O)C3CC3)ncc21 (stereo not shown) [Compound 128],7.12,6.51,6.92,6.89,,,
CC1(Cn2cc(-c3nc(N)ncc3F)c3cc(C#CC(C)(O)C4CC4)ncc32)COC1 (stereo not shown) [Compound 129],7.64,6.04,6.82,6.68,,,
CC(O)(C#Cc1cc2c(-c3nc(N)ncc3F)cn(CC3CCCO3)c2cn1)C1CC1 (stereo not shown) [Compound 130],7.55,6.19,6.72,6.52,,,
CC(O)(C#Cc1cc2c(-c3nc(N)ncc3F)cn(C3CCOC3)c2cn1)C1CC1 (stereo not shown) [Compound 131],7.68,6.36,7.05,6.82,,,
CC(O)(C#Cc1cc2c(-c3nc(N)ncc3F)c[nH]c2cn1)C1CC1 (stereo not shown) [Compound 132],8.19,6.39,7.52,7.11,,,
Cc1nc(C#CC(C)(O)C2CC2)cc2c(-c3nc(N)ncc3F)cn(C3COC3)c12 (stereo not shown) [Compound 133],7.30,6.48,7.18,6.85,,,

SMILES,pIC50 [1],"pEC50 ([2]; Homo sapiens, LP-1, 72 h)","pEC50 ([3]; Homo sapiens, L-363, 72 h)","pEC50 ([4]; Homo sapiens, JJN-3, 72 h)",pEC50 [2],pEC50 [3],pEC50 [4]
CN1CCN(C(=O)n2cc(-c3nc(N)ncc3F)c3cc(C#CC(C)(O)C4CC4)ncc32)CC1 (stereo not shown) [Compound 134],6.96,4.62,5.52,5.39,,,
CN1CC(n2cc(-c3nc(N)ncc3F)c3cc(C#CC(C)(O)C4CC4)ncc32)C1 (stereo not shown) [Compound 135],7.17,6.39,7.19,6.74,,,
CCN1CC(n2cc(-c3nc(N)ncc3F)c3cc(C#CC(C)(O)C4CC4)ncc32)C1 (stereo not shown) [Compound 136],6.92,6.35,6.85,6.62,,,
Nc1ncc(F)c(-c2cn(C3COC3)c3cnc(C#CC(O)(CF)C4CC4)cc23)n1 (stereo not shown) [Compound 137],7.28,5.70,6.42,6.26,,,
CCN1CCCC(n2cc(-c3nc(N)ncc3F)c3cc(C#CC(C)(O)C4CC4)ncc32)C1 (stereo not shown) [Compound 138],6.96,6.60,7.10,7.03,,,
CCCN1CC(n2cc(-c3nc(N)ncc3F)c3cc(C#CC(C)(O)C4CC4)ncc32)C1 (stereo not shown) [Compound 139],7.01,6.47,6.80,6.66,,,
CC(O)(C#Cc1cc2c(-c3nc(N)ncc3F)cn(C3CN(CC4CC4)C3)c2cn1)C1CC1 (stereo not shown) [Compound 140],7.00,6.49,6.85,6.77,,,
CCN1CCC(n2cc(-c3nc(N)ncc3F)c3cc(C#CC(C)(O)C4CC4)ncc32)C1 (stereo not shown) [Compound 141],7.18,6.49,7.25,7.02,,,
CC(O)(C#Cc1cc2c(-c3nc(N)ncc3F)cn(C3CN(C4CCCC4)C3)c2cn1)C1CC1 (stereo not shown) [Compound 142],6.68,6.39,6.72,6.82,,,
CCOCCN1CC(n2cc(-c3nc(N)ncc3F)c3cc(C#CC(C)(O)C4CC4)ncc32)C1 (stereo not shown) [Compound 158],6.74,6.13,6.41,6.36,,,
CC(C)N1CC(n2cc(-c3nc(N)ncc3F)c3cc(C#CC(C)(O)C4CC4)ncc32)C1 (stereo not shown) [Compound 159],6.57,6.49,6.74,6.64,,,
[2H]C([2H])([2H])C(O)(C#Cc1cc2c(-c3nc(N)ncc3F)cn(C3CN(C4CC4)C3)c2cn1)C([2H])([2H])[2H] [Compound 160],7.09,6.68,7.03,6.96,,,
CC(O)(C#Cc1cc2c(-c3nc(N)ncc3F)cn(C3CN(C4CC4)C3)c2cn1)CF (stereo not shown) [Compound 161],7.40,6.47,6.96,6.82,,,
COCC(C)N1CC(n2cc(-c3nc(N)ncc3F)c3cc(C#CC(C)(O)C4CC4)ncc32)C1 (stereo not shown) [Compound 162],6.47,6.10,6.46,6.43,,,
CC(O)(C#Cc1cc2c(-c3nc(N)ncc3F)cn(C3CCN(CCF)CC3)c2cn1)C1CC1 (stereo not shown) [Compound 163],7.14,6.96,7.23,6.96,,,
CC(O)(C#Cc1cc2c(-c3ccnc(N)n3)cn(C3CCN(C4CC4)CC3)c2cn1)C1CC1 (stereo not shown) [Compound 164],7.05,6.17,6.57,6.41,,,
CC(O)(C#Cc1cc2c(-c3nc(N)ncc3F)cn(C3CCN(CC4CC4)CC3)c2cn1)C1CC1 (stereo not shown) [Compound 165],7.34,6.34,6.70,6.66,,,
CC(C)(O)C#Cc1cc2c(-c3nc(N)ncc3F)cn(C3CN(C4CC4)C3)c2cn1 [Compound 166],7.12,6.74,7.22,7.02,,,
